Data set [1] deals with rat VSMC. As to the kind of experiment: Stimulation of VSMC with interferon-γ and LPS, dependence of NO2 production on cytokine and L-arginine. The class given is cell-based. The following applies: extracellular L-arginine over the range of 0 to 10mM, IFN-γ (100U/ml) and LPS (100µg/ml) 24 hours. The method, then: (§1) Rat VSMCs were prepared from the media layer of thoracic aorta of Sprague-Dawley rats by the explant method. The cells were cultured in Dulbecco's modified Eagle's medium (DMEM, Gibco BRL, Gaithersburg, MD) containing 10% fetal calf serum, 100U/ml penicillin and 100µg/ml streptomycin at 37°C under a humidified atmosphere containing 5% CO2. After subconfluent growth, cells were cultured with MEM Select Amine Kit (Gibco BRL, Gaithersburg, MD) to be treated by specific concentrations of extracellular free L-arginine. Experiments were performed using cultured cells at passage levels of 5-10.
Extracellular NO production was measured as its stable oxidative metabolite, nitrite (NO2). […] Values of NO2 production were corrected with relative cell count assessed by a cell proliferation kit II (XTT) (Boeheringer Mannheim, Germany).
Cells were plated at a density of 5 × 10^3 per well into 96-well plates. […] After 24 hours of incubation, the cells were then treated with a mixture of IFN-γ (100U/ml) and LPS (100µg/ml) in the medium containing the same dose of L-arginine for another 24 hours, and nitrite (NO2) accumulation in the culture medium was quantified.
No detectable NO2 was measured in the medium of non-stimulated VSMC. When cells were stimulated with a mixture of IFN-γ (100U/ml) and LPS ([…]), a significant amount of NO2 was detected in the medium (14.7 ± 0.3 µM / 10^5 cells / 24 hours). […]

The test system of data set [2] is cytokine-stimulated VSMC. As to the kind of experiment: Effect of arginine oligomers on NO production (NO2, Griess reaction) in cytokine-stimulated VSMC. The class given is cell-based, rat. The protocol:
as §1
Extracellular NO production was measured as its stable oxidative metabolite, nitrite (NO2). At the end of each incubation, samples of the medium (80µl) were collected, and NO2 measurement was performed using the Griess reaction facilitated by a commercial colorimetric assay (Cayman Chemical, Ann Arbor, MI). Values of NO2 production were corrected with relative cell count assessed by a cell proliferation kit II (XTT) (Boeheringer Mannheim, Germany).
Subconfluent cells were pre-incubated with medium containing 100µM arginine for 24 hours. […] After translocation, the cells were incubated with a mixture of IFN-γ (100U/ml) and LPS (100µg/ml) in medium containing 100µM L-arginine for another 24 hours. In some experiments, L-NMMA (1mM), a nitric oxide synthase inhibitor, was added to the medium.
(Griess reagent forms a coloured azo dye with nitrite.)

Data set [3] has as its system rabbit carotid artery segment. As to the kind of experiment: Ex vivo translocation of biotin-labeled peptides into carotid artery segments. Also on record: species or system New Zealand white rabbits. The following applies: reincubated in DMEM with 10% FBS; for positive staining (internalized biotin): day 5 after exposure (10.0 µM, 30 minutes). The protocol: After incubation with biotin labeled oligomer, vascular segments were washed, then frozen in OCT compound (Miles Scientific). Frozen sections, 5 µm thick, were fixed with acetone for 10 minutes. Internalized biotin was detected using the staining procedure described in Example 2. Methyl green was used for nuclear counter staining.
To quantify the efficiency of nuclear translocation, the numbers of both DAB positive nuclei and total nuclei were counted in the intima and media separately at X400 magnification with a video image analysis system (Automatrix). The frequency of nuclear translocation was expressed as the percent staining of nuclei, defined as the ratio of the number of DAB positive nuclei to that of all nuclei, in the intima and media. Each protocol was repeated 4 times.
Both carotid artery and jugular vein segments of male New Zealand white rabbits were used. To test the dose dependence of R7 translocation, vascular segments were incubated for 30 minutes with either bL-R7 or bD-R7 solution (0.1, 1.0, and 10.0 µM) in serum-free Dulbecco's minimal essential medium (DMEM) (Gibco BRL). To test the incubation time dependence, vascular segments were incubated with 10.0 µM of biotin labeled R7 solution for 10 seconds, 60 seconds, 5 minutes, 10 minutes, and 30 minutes. Furthermore, to determine the ability of R7 to penetrate through the vessel wall, vascular segments were ligated one end, R7 containing medium was instilled, and the other end ligated so as to expose only the luminal surface to R7. The luminal surface of the vascular segment was exposed to bL-R7 or bD-R7 (10.0 µM) for 30 minutes. To test the temperature dependence of translocation, vascular segments were incubated with 10.0 µM of biotin labeled R7 solutions at 37°C or 4°C. To determine the disappearance time course of translocated R7. vascular segments were incubated with biotin labeled R7 solutions (10.0 µM) at 37°C for 30 minutes, and then reincubated in DMEM with 10% FBS up to 5 days. Vascular segments were harvested at 1, 2 and 5 days after initial incubation.

Data set [4] deals with human umbilical vein endothelial cells (ECV304). As to the kind of experiment: In vitro translocation of biotin-labeled peptides into endothelial cells. Format: cell-based. The following applies: control treatments, 30 minutes incubation (peptides 0.1, 1.0, and 10.0 µM). The method, then: In the studies described below, transmembrane transport and cellular uptake of oligomers was assessed by incubating cells or tissue with biotin-oligomer conjugates, followed by treatment with horseradish peroxidase (HRP)-conjugated streptavidin and subsequent incubation with DAB (3,3'-diaminobenzidine), a substrate of the enzyme which produces a highly colored product.
Spontaneously transformed human umbilical vein endothelial cells (ECV304, ATCC) were cultured in medium M199 (Irvine Scientific) containing 10% fetal bovine serum (FBS), 100 IU/ml penicillin and 100 µg/ml of streptomycin (Gibco BRL). Confluent cells were washed and placed in serum-free medium. After 2 hours, the cells were incubated in presence of biotin labeled peptides, as bL-R7, or bD-R7, or bL-K7 (0.1, 1.0, and 10.0 µM). After 30 minutes of incubation, cells were washed 3 times with phosphate-buffered saline (PBS), fixed in ethanol/acetone; washed in PBS; incubated for 30 minutes with peroxidase suppressor (ImmunoPure, Pierce) to block endogenous peroxidase activity; and then incubated with 5 µg/ml of horse-radish peroxidase (HRP) conjugated strepavidin (Pierce) for 30 minutes. Substrate of HRP, diaminobenzidine (DAB, Sigma), was added to the cells. The reaction was terminated by washing in distilled water after a 60-second incubation. This experiment was repeated 3 times.

With `N=C(N)NCCC[C@H](N)C(=O)O` [L-arginine], in data set [1], the “NO2 synthesis by cytokine stimulated VSMC” value is reported as “progressive increase in NO2 synthesis”. Also, the NO biosynthesis entry in data set [2] (1 mM for 5 minutes (data not shown)) is on record as “did not significantly increase NO biosynthesis”. Further, the “elevation of NO production” value in data set [2] (high concentrations, up to 1mM) was “not observed”.

Take `N=C(N)NCCC[C@H](NC(=O)[C@H](CCCNC(=N)N)NC(=O)[C@H](CCCNC(=N)N)NC(=O)[C@H](CCCNC(=N)N)NC(=O)[C@H](CCCNC(=N)N)NC(=O)[C@H](CCCNC(=N)N)NC(=O)[C@H](CCCNC(=N)N)NC(=O)CCCC[C@@H]1SC[C@@H]2NC(=O)N[C@@H]21)C(=O)O` [bR7, biotin-labeled heptaarginine]: in data set [3], the “positive staining (internalized biotin)” value was “No significant positive staining was observed”.

Take `N=C(N)NCCC[C@@H](NC(=O)[C@@H](CCCNC(=N)N)NC(=O)[C@@H](CCCNC(=N)N)NC(=O)[C@@H](CCCNC(=N)N)NC(=O)[C@@H](CCCNC(=N)N)NC(=O)[C@@H](CCCNC(=N)N)NC(=O)[C@@H](CCCNC(=N)N)NC(=O)CCCC[C@@H]1SC[C@@H]2NC(=O)N[C@@H]21)C(=O)O` [bD-r7]: the “positive staining (internalized biotin)” value in data set [3] is given as “No significant positive staining was observed”. Further, the “residual nuclear biotin in endothelial and medial cells” value in data set [3] (days 1 and 2 after exposure (10.0 µM, 30 minutes)) is given as “greater in vascular segments treated with bD-r7 than those treated with bL-R7”.

Regarding `O=C(O)CCCC[C@@H]1SC[C@@H]2NC(=O)N[C@@H]21` [biotin], the internalized biotin signals result in data set [4] was “No internalized biotin signals were detected”.
